The text below walks through data of patent US8785468B2, “Phenylalanine amide derivatives useful for treating insulin-related diseases and conditions” (Amgen Inc., priority 2009, dated 2014).

By pEC50 is commonly meant the negative decadic logarithm of the EC50, by convention in mol/L.

pEC50: −log10 of the molar value. Structures can show the parent of a compound that is named as a salt.

The assay deals with T1, human receptor found in pancreatic islet cells (Homo sapiens, UniProt Q7Z601).
T1 sequence (Q7Z601 1-462): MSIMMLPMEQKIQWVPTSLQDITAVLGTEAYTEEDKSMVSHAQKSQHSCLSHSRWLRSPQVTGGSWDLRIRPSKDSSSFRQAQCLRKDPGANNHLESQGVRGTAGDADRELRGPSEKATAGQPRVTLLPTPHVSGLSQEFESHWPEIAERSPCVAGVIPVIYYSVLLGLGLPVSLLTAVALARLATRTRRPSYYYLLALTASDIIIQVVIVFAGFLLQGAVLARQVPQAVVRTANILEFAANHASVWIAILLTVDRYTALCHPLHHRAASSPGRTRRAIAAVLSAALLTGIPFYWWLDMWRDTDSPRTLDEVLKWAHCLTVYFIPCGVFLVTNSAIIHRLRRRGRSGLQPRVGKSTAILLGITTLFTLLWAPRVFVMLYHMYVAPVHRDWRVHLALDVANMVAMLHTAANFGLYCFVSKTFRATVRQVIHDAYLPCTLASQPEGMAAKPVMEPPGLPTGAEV
As to the kind of experiment: Activation of intracellular IP3 signaling in transfected cells (Activation Assay). It counts as cell-based. As to conditions: calculated from IP3 concentration measurements in cells transfected with the human receptor. The protocol:
Table 12 provides exemplary compounds that were prepared and assessed, following protocols known to those of skilled in the art, for activation of intracellular inositol trisphosphate (IP3) signaling pathways that lead to elevation of intracellular calcium concentration. EC50 values provided in Table 12 were calculated from IP3 concentration measurements in cells transfected with a human receptor found in pancreatic islet cells, inter alia.
Regarding `O=C(Nc1cccc(-c2ccncc2)c1)[C@H](Cc1cccc(F)c1)NCC1CC1` [Example 34.12, (S)-2-(Cyclopropylmethylamino)-3-(3-fluorophenyl)-N-(3-(pyridin-4-yl)phenyl)propanamide], the pEC50 was 6.00 to 7.00. As for `CC(C)N[C@@H](Cc1ccccc1)C(=O)Nc1cccc(-c2ccncc2)c1` [Example 34.13, (S)-2-(Isopropylamino)-3-phenyl-N-(3-(pyridin-4-yl)phenyl)propanamide], the figure is 5.00 to 6.00; as for `O=C(Nc1cccc(-c2ccncc2)c1)[C@H](Cc1ccccc1)NCc1cscn1` [Example 34.14, (S)-3-Phenyl-N-(3-(pyridin-4-yl)phenyl)-2-(thiazol-4-ylmethylamino)propanamide], 7.00 to 7.30. In the case of `O=C(Nc1cccc(-c2ccncc2)c1)[C@H](Cc1ccccc1)NCc1cnco1` [Example 34.15, (S)-2-(Oxazol-5-ylmethylamino)-3-phenyl-N-(3-(pyridin-4-yl)phenyl)propanamide] it was 5.00 to 6.00.

Regarding `O=C(Nc1cccc(-c2ccncc2)c1)[C@H](Cc1ccccc1)NCc1nccs1` [Example 34.16, (S)-3-Phenyl-N-(3-(pyridin-4-yl)phenyl)-2-(thiazol-2-ylmethylamino)propanamide], the pEC50 is 6.00 to 7.00.

With `O=C(Nc1cccc(-c2ccncc2)c1)[C@H](Cc1ccccc1)NCc1cncs1` [Example 34.17, (S)-3-Phenyl-N-(3-(pyridin-4-yl)phenyl)-2-(thiazol-5-ylmethylamino)propanamide], the pEC50 is 6.00 to 7.00. As for `Cc1ncc(CN[C@@H](Cc2ccccc2)C(=O)Nc2cccc(-c3ccncc3)c2)s1` [Example 34.18, (S)-2-((2-Methylthiazol-5-yl)methylamino)-3-phenyl-N-(3-(pyridin-4-yl)phenyl)propanamide], the figure is 6.00 to 7.00; as for `CC(N[C@@H](Cc1ccccc1)C(=O)Nc1cccc(-c2ccncc2)c1)c1cscn1` (stereo partly drawn) [Example 34.19, (2S)-3-Phenyl-N-(3-(pyridin-4-yl)phenyl)-2-(1-(thiazol-4-yl)ethylamino)propanamide], 6.00 to 7.00. In the case of `Cn1cnnc1CN[C@@H](Cc1ccccc1)C(=O)Nc1cccc(-c2ccncc2)c1` [Example 34.20, (S)-2-((4-Methyl-4H-1,2,4-triazol-3-yl)methylamino)-3-phenyl-N-(3-(pyridin-4-yl)phenyl)propanamide] it was 6.00 to 7.00; in that of `O=C(Nc1cccc(-c2ccncc2F)c1)[C@H](Cc1ccccc1)NCc1cscn1` [Example 34.21, (2S)—N-(3-(3-Fluoropyridin-4-yl)phenyl)-3-phenyl-2-(thiazol-4-ylmethylamino)propanamide TFA salt], 5.00 to 6.00; in that of `COc1ncc(-c2ccncc2)cc1NC(=O)[C@H](Cc1ccccc1)N[C@@H](C)c1ccccn1` [Example 35.2, (S)—N-(2-Methoxy-5-(pyridin-4-yl)pyridin-3-yl)-3-phenyl-2-((S)-1-(pyridin-2-yl)ethylamino)propanamide], 6.00 to 7.00. As for `COc1ncc(-c2ccncc2)cc1NC(=O)[C@H](Cc1ccccc1)NC1(c2csc(C)n2)CC1` [Example 35.3, (S)—N-(2-Methoxy-5-(pyridin-4-yl)pyridin-3-yl)-2-(1-(2-methylthiazol-4-yl)cyclopropylamino)-3-phenylpropanamide], the figure is 7.00 to 7.30; as for `COc1ncc(-c2ccncc2)cc1NC(=O)[C@H](Cc1ccccc1)NCc1ccon1` [Example 35.4, (S)-2-(Isoxazol-3-ylmethylamino)-N-(2-methoxy-5-(pyridin-4-yl)pyridin-3-yl)-3-phenylpropanamide], 6.00 to 7.00; as for `COc1ncc(-c2ccncc2)cc1NC(=O)[C@H](Cc1ccccc1)NC1(c2ncccn2)CC1` [Example 35.5, (S)—N-(2-Methoxy-5-(pyridin-4-yl)pyridin-3-yl)-3-phenyl-2-(1-(pyrimidin-2-yl)cyclopropylamino)propanamide], 7.00 to 7.30. As for `COc1ncc(-c2ccnc(C)c2)cc1NC(=O)[C@@H](N)Cc1ccccc1` [Example 35.6, (2S)-2-Amino-N-(2-methoxy-5-(2-methylpyridin-4-yl)pyridin-3-yl)-3-phenylpropanamide], the pEC50 is 5.00 to 6.00.

For the compound `Nc1cc(-c2cccc(NC(=O)[C@H](Cc3ccccc3)NCc3cscn3)c2)ccn1` [Example 36, (2S)—N-(3-(2-Aminopyridin-4-yl)phenyl)-3-phenyl-2-(thiazol-4-ylmethylamino)propanamide], the pEC50 was 6.00 to 7.00. Consider `COc1ccc(NC(=O)[C@H](Cc2ccccc2)NCc2cscn2)cc1-c1ccncc1` [Example 37, (S)—N-(4-Methoxy-3-(pyridin-4-yl)phenyl)-3-phenyl-2-(thiazol-4-ylmethylamino)propanamide], for which the pEC50 was 7.00 to 7.30. As for `COc1ccc(NC(=O)[C@H](Cc2ccccc2)NCc2cscn2)cc1-c1ccncc1` [Example 38, (S)—N-(4-Methoxy-3-(pyridin-4-yl)phenyl)-3-phenyl-2-(thiazol-4-ylmethylamino)propanamide], the figure is 6.00 to 7.00; as for `Cc1cc(-c2cccc(NC(=O)[C@H](Cc3ccccc3)NCc3cscn3)c2)ccn1` [Example 39, (2S)—N-(3-(2-methylpyridin-4-yl)phenyl)-3-phenyl-2-(thiazol-4-ylmethylamino)propanamide], 7.00 to 7.30; as for `Nc1cccc(-c2cccc(NC(=O)[C@H](Cc3ccccc3)NCc3cscn3)c2)c1` [Example 40, (S)—N-(3′-aminobiphenyl-3-yl)-3-phenyl-2-(thiazol-4-ylmethylamino)propanamide], 5.00 to 6.00. As for `COc1ncc(-c2ccnc(C)c2)cc1NC(=O)[C@H](Cc1ccccc1)NC1(c2ccccn2)CC1` [Example 41.1, (2S)—N-(2-Methoxy-5-(2-methylpyridin-4-yl)pyridin-3-yl)-3-phenyl-2-(1-(pyridin-2-yl)cyclopropylamino)propanamide], the figure is 6.00 to 7.00; as for `COc1ncc(-c2ccnc(C)c2)cc1NC(=O)[C@H](Cc1ccccc1)N[C@@H](C)c1ccccn1` [Example 41.2, (S)—N-(2-Methoxy-5-(2-methylpyridin-4-yl)pyridin-3-yl)-3-phenyl-2-((S)-1-(pyridin-2-yl)ethylamino)propanamide], 6.00 to 7.00; as for `COc1ncc(-c2ccnc(C)c2)cc1NC(=O)[C@H](Cc1ccccc1)NCc1ccccn1` [Example 41.3, (2S)—N-(2-Methoxy-5-(2-methylpyridin-4-yl)pyridin-3-yl)-3-phenyl-2-(pyridin-2-ylmethylamino)propanamide], 6.00 to 7.00. `COc1ncc(-c2ccnc(C)c2)cc1NC(=O)[C@H](Cc1ccccc1)NCc1cn(C)cn1` [Example 41.4, (2S)—N-(2-Methoxy-5-(2-methylpyridin-4-yl)pyridin-3-yl)-2-((1-methyl-1H-imidazol-4-yl)methylamino)-3-phenylpropanamide]: the pEC50 is 6.00 to 7.00. In the case of `COc1ncc(-c2ccnc(C)c2)cc1NC(=O)[C@H](Cc1ccccc1)NCc1cscn1` [Example 41.5, (2S)—N-(2-Methoxy-5-(2-methylpyridin-4-yl)pyridin-3-yl)-3-phenyl-2-(thiazol-4-ylmethylamino)propanamide TFA salt] it was 6.00 to 7.00; in that of `COc1cc(NC(=O)[C@H](Cc2ccccc2)NCc2cscn2)cc(-c2ccnc(C)c2)n1` [Example 41.6, (2S)—N-(2-Methoxy-6-(2-methylpyridin-4-yl)pyridin-4-yl)-3-phenyl-2-(thiazol-4-ylmethylamino)propanamide], 6.00 to 7.00; in that of `CCCn1nc(-c2ccnc(NC)c2)cc1NC(=O)[C@H](Cc1ccc(F)cc1)NCc1cscn1` [Example 42, (2S)-3-(4-fluorophenyl)-N-(3-(2-(methylamino)pyridin-4-yl)-1-propyl-1H-pyrazol-5-yl)-2-(thiazol-4-ylmethylamino)propanamide], above 7.30. For `CNc1cc(-c2cc(NC(=O)[C@@H](N)Cc3ccc(F)cc3)n(C(C)C)n2)ccn1` [Example 43.1, (2S)-2-Amino-3-(4-fluorophenyl)-N-(1-isopropyl-3-(2-(methylamino)pyridin-4-yl)-1H-pyrazol-5-yl)propanamide], the pEC50 was 6.00 to 7.00. In the case of `CNc1cc(-c2cc(NC(=O)[C@H](Cc3ccc(F)cc3)NCc3cscn3)n(C(C)C)n2)ccn1` [Example 43.2] it was 7.00 to 7.30; in that of `O=C(Nc1cccc(-c2ccc(F)cc2)c1)[C@H](Cc1ccccc1)NCc1cscn1` [Example 44], 6.00 to 7.00. In the case of `N[C@@H](Cc1ccccc1)C(=O)Nc1cc(C(=O)O)cc(-c2ccncc2)c1` [Example 45.1, (S)-3-(2-Amino-3-phenylpropanamido)-5-(pyridin-4-yl)benzoic acid] it was 5.00 to 6.00; in that of `O=C(O)c1cc(NC(=O)[C@H](Cc2ccccc2)NCc2nccs2)cc(-c2ccncc2)c1` [Example 45.3, (S)-3-(3-Phenyl-2-(thiazol-2-ylmethylamino)propanamido)-5-(pyridin-4-yl)benzoic acid], 6.00 to 7.00; in that of `O=C(O)c1cc(NC(=O)[C@H](Cc2ccccc2)NCc2cn[nH]c2)cc(-c2ccncc2)c1` [Example 45.4, (S)-3-(2-((1H-Pyrazol-4-yl)methylamino)-3-phenylpropanamido)-5-(pyridin-4-yl)benzoic acid], 5.00 to 6.00.
